According to ChEMBL document CHEMBL2074442, “Recognition of beta-lactam antibiotics by rat peptide transporters, PEPT1 and PEPT2, in LLC-PK1 cells” (Am J Physiol, 1997):

T1: Solute carrier family 15 member 2 (Rattus norvegicus, UniProt Q63424)
T1 sequence (Q63424 whole entry): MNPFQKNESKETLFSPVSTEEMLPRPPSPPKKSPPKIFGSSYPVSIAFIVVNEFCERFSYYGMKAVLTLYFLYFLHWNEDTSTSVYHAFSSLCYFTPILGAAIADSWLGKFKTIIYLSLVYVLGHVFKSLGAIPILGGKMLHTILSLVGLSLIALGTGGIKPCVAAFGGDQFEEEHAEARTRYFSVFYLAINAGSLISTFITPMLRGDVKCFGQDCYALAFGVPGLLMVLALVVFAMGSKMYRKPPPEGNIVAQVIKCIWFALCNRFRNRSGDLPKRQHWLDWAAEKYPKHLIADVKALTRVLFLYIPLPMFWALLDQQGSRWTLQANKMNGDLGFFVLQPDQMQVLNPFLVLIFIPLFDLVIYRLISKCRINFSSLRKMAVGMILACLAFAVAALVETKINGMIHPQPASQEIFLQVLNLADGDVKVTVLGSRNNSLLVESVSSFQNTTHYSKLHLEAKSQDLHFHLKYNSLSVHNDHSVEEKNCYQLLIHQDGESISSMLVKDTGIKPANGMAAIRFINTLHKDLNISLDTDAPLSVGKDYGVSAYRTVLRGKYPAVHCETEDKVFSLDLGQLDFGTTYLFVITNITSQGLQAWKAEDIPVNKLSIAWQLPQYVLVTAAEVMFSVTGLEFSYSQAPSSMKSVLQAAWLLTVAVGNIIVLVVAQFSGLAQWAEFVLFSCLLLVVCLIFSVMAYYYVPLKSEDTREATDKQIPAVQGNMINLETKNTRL

T2: Solute carrier family 15 member 1 (Rattus norvegicus, UniProt P51574)
T2 sequence (P51574 whole entry): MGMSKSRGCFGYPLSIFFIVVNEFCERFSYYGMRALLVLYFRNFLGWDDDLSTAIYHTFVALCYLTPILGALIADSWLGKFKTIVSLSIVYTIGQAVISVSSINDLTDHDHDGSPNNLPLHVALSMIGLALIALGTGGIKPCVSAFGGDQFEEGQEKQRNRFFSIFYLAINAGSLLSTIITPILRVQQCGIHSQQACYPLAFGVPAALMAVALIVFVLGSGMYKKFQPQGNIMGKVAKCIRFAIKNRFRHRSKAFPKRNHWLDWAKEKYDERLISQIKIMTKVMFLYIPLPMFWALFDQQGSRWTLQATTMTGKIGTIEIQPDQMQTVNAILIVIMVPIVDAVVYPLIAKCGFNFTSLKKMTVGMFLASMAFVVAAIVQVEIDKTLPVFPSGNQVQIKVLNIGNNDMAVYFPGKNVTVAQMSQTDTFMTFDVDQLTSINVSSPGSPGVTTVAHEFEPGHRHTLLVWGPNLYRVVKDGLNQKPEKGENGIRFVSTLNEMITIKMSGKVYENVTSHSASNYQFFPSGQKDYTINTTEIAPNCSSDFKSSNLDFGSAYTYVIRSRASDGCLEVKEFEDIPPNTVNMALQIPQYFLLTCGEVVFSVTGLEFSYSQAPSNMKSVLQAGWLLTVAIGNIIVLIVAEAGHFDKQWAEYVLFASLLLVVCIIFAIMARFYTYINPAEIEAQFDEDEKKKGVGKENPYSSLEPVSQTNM

B1: Solute carrier family 15 member 2 (Rattus norvegicus), Q63424 (protein)
chain: T1 sequence (Q63424 whole entry)
B2: Solute carrier family 15 member 1 (Rattus norvegicus), P51574 (protein)
chain: T2 sequence (P51574 whole entry)

Experiments:
Assay type in all cases: functional, cell-based
[1] = biological target: T1, Solute carrier family 15 member 2; assay: TP_TRANSPORTER: inhibition of Gly-Sar uptake in PEPT2-expressing LLC-PK1 cells
[2] = biological target: T2, Solute carrier family 15 member 1; assay: TP_TRANSPORTER: inhibition of Gly-Sar uptake in PEPT1-expressing LLC-PK1 cells
[3] = substrate: CN(CC(=O)O)C(=O)CN; assay: TP_TRANSPORTER: uptake in PEPT2-expressing LLC-PK1 cells
[4] = substrate: CN(CC(=O)O)C(=O)CN; assay: TP_TRANSPORTER: uptake in PEPT1-expressing LLC-PK1 cells

Row | Molecule | Ki [1] [µM] | Ki [2] [µM] | Km [3] [µM] | Km [4] [µM]
1 | CC1=C(C(=O)O)N2C(=O)[C@@H](NC(=O)[C@H](N)c3ccccc3)[C@H]2SC1 [CEPHALEXIN ANHYDROUS] | 49 | 4500 |  | 
2 | CC1(C)S[C@@H]2[C@H](NC(=O)[C@H](N)c3ccc(O)cc3)C(=O)N2[C@H]1C(=O)O [AMOXICILLIN] | 179 | 13000 |  | 
3 | CC1=C(C(=O)O)N2C(=O)[C@@H](NC(=O)[C@H](N)C3=CCC=CC3)[C@H]2SC1 [CEPHRADINE] | 47 | 8540 |  | 
4 | CC1=C(C(=O)O)N2C(=O)[C@@H](NC(=O)[C@H](N)c3ccc(O)cc3)[C@H]2SC1 [CEFADROXIL] | 3 | 2170 |  | 
5 | Nc1nc(/C(=C/CC(=O)O)C(=O)N[C@@H]2C(=O)N3C(C(=O)O)=CCS[C@H]23)cs1 [CEFTIBUTEN] | 1340 | 597 |  | 
6 | CC1(C)S[C@@H]2[C@H](NC(=O)C3(N)CCCCC3)C(=O)N2[C@H]1C(=O)O [CYCLACILLIN] | 27 | 168 |  | 
7 | CC1(C)S[C@@H]2[C@H](NC(=O)[C@H](N)c3ccccc3)C(=O)N2[C@H]1C(=O)O [AMPICILLIN] | 669 | 47800 |  | 
8 | C=CC1=C(C(=O)O)N2C(=O)[C@@H](NC(=O)/C(=N\OCC(=O)O)c3csc(N)n3)[C@H]2SC1 [CEFIXIME] | 11900 | 6920 |  | 
9 | C=CC1=C(C(=O)O)N2C(=O)[C@@H](NC(=O)/C(=N\O)c3csc(N)n3)[C@H]2SC1 [CEFDINIR] | 20100 | 11900 |  | 
10 | B1 |  |  | 110 | 
11 | B2 |  |  |  | 1100
